Test results: PubChem BioAssay AID180 (DTP/NCI, 2004)
Values joined by “and” are separate entries in the source; they are usually repeats but may differ in a detail not shown here. Identical values can stand only once.

Tested on: BDF1 mice, Adenocarcinoma 755 s.c., tumor weight T/C
Assay: NCI In Vivo Anticancer Drug Screen. Data for tumor model Adenocarcinoma 755 (subcutaneous) in B6D2F1 (BDF1) mice
Conditions: endpoint: mean tumor weight, higher = larger tumour
Summary of the method: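 Tumor-bearing mice receive test compound while controls get vehicle alone. Antitumor effect is scored from survival or tumor dimensions as a T/C quotient.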

[1] = dose: 3.5 mg/kg/injection, schedule: Q01DX011 (ip), vehicle: carboxymethylcellulose (CMC)
[2] = dose: 7.0 mg/kg/injection, schedule: Q01DX011 (ip), vehicle: carboxymethylcellulose (CMC)
[3] = dose: 14.0 mg/kg/injection, schedule: Q01DX011 (ip), vehicle: carboxymethylcellulose (CMC)
[4] = dose: 56.0 mg/kg/injection, schedule: Q01DX011 (ip), vehicle: carboxymethylcellulose (CMC)

**Q.** With `CC(=O)OCC(=O)[C@@]1(O)CC[C@H]2[C@@H]3C[C@H](C)C4=CC(=O)C=C[C@]4(C)[C@H]3[C@@H](O)C[C@@]21C` as the compound, how does the T/C (dose: 2.5 mg/kg/injection, schedule: Q01DX011 (sc), vehicle: steriod suspending solution) read?
**A.** The T/C was 70 % of control.

**Q.** What about the T/C (dose: 3.8 mg/kg/injection, schedule: Q01DX011 (sc), vehicle: steriod suspending solution) of the same compound?
**A.** Its T/C is 77 % of control.

**Q.** What about the T/C (dose: 5.0 mg/kg/injection, schedule: Q01DX011 (sc), vehicle: steriod suspending solution) of the same compound?
**A.** The T/C was 57 % of control.

**Q.** And the T/C (dose: 7.5 mg/kg/injection, schedule: Q01DX011 (sc), vehicle: steriod suspending solution)?
**A.** Its T/C is 68 % of control.

**Q.** What about the T/C (dose: 10.0 mg/kg/injection, schedule: Q01DX011 (sc), vehicle: steriod suspending solution) of the same compound?
**A.** The T/C was 35 % of control.

**Q.** What about the T/C (dose: 15.0 mg/kg/injection, schedule: Q01DX011 (sc), vehicle: steriod suspending solution) of the same compound?
**A.** The T/C was 37 % of control.

**Q.** And the T/C (dose: 20.0 mg/kg/injection, schedule: Q01DX011 (sc), vehicle: steriod suspending solution)?
**A.** Its T/C is 25 % of control and 40 % of control.

**Q.** What about the T/C (dose: 40.0 mg/kg/injection, schedule: Q01DX011 (sc), vehicle: steriod suspending solution) of the same compound?
**A.** Its T/C is 14 % of control and 20 % of control.

**Q.** And the T/C (dose: 80.0 mg/kg/injection, schedule: Q01DX011 (sc), vehicle: steriod suspending solution)?
**A.** The T/C was 6 % of control.

**Q.** `Nc1nc(Cl)nc2c1ncn2C1OC(CO)C(O)C1O` (configuration not stated) was tested. Which T/C (dose: 0.05 mg/kg/injection, schedule: Q01DX011 (ip), vehicle: methylcellulose (MC)) did it give?
**A.** Its T/C is 59 % of control.

**Q.** And the T/C (dose: 0.1 mg/kg/injection, schedule: Q01DX011 (ip), vehicle: methylcellulose (MC))?
**A.** The T/C was 84 % of control.

**Q.** And the T/C (dose: 0.2 mg/kg/injection, schedule: Q01DX011 (ip), vehicle: methylcellulose (MC))?
**A.** The T/C was 48 % of control.

**Q.** Which results are given for `CCOC(=O)Sc1ncnc2nc[nH]c12`?
**A.** T/C (dose: 0.21 mg/kg/injection, schedule: Q01DX011 (ip), vehicle: carboxymethylcellulose (CMC)): 87 % of control; T/C (dose: 0.42 mg/kg/injection, schedule: Q01DX011 (ip), vehicle: carboxymethylcellulose (CMC)): 41 % of control; T/C (dose: 0.85 mg/kg/injection, schedule: Q01DX011 (ip), vehicle: carboxymethylcellulose (CMC)): 50 % of control; T/C (dose: 1.75 mg/kg/injection, schedule: Q01DX011 (ip), vehicle: carboxymethylcellulose (CMC)): 3 % of control and 7 % of control and 12 % of control; T/C [1]: 4 % of control; T/C [2]: 1 % of control and 5 % of control; T/C [3]: 2 % of control and 8 % of control; T/C (dose: 28.0 mg/kg/injection, schedule: Q01DX011 (ip), vehicle: carboxymethylcellulose (CMC)): 8 % of control; T/C [4]: 8 % of control; T/C (dose: 112.0 mg/kg/injection, schedule: Q01DX011 (ip), vehicle: carboxymethylcellulose (CMC)): 7 % of control

**Q.** Which results are given for `CC(C)OC(=O)C1(N)CCCC1`?
**A.** T/C [1]: 43 % of control; T/C [2]: 55 % of control; T/C (dose: 7.0 mg/kg/injection, schedule: Q01DX011 (ip), vehicle: saline): 95 % of control; T/C [3]: 55 % of control; T/C (dose: 14.0 mg/kg/injection, schedule: Q01DX011 (ip), vehicle: saline): 96 % of control; T/C (dose: 28.0 mg/kg/injection, schedule: Q01DX011 (ip), vehicle: saline): 34 % of control and 58 % of control; T/C [4]: 42 % of control; T/C (dose: 113.0 mg/kg/injection, schedule: Q01DX011 (ip), vehicle: saline): 6 % of control; T/C (dose: 120.0 mg/kg/injection, schedule: Q01DX011 (ip), vehicle: other): 10 % of control

**Q.** Which T/C (dose: 0.15 mg/kg/injection, schedule: Q01DX011 (ip), vehicle: carboxymethylcellulose (CMC)) does the source give for `N#Cc1cn(C2OC(CO)C(O)C2O)c2ncnc(N)c12` (configuration not stated) here?
**A.** The T/C was 72 % of control.

**Q.** What does the source list for `Cc1ccc(CSc2nc(N)nc3c2ncn3C2OC(CO)C(O)C2O)cc1` (configuration not stated)?
**A.** T/C (dose: 12.5 mg/kg/injection, schedule: Q01DX011 (ip), vehicle: methylcellulose (MC)): 57 % of control; T/C (dose: 25.0 mg/kg/injection, schedule: Q01DX011 (ip), vehicle: methylcellulose (MC)): 60 % of control; T/C (dose: 50.0 mg/kg/injection, schedule: Q01DX011 (ip), vehicle: methylcellulose (MC)): 25 % of control and 41 % of control

**Q.** With `NC(CO)(CO)CO` as the compound, how does the T/C (dose: 125.0 mg/kg/injection, schedule: Q01DX011 (ip), vehicle: saline) read?
**A.** Its T/C is 72 % of control.

**Q.** And the T/C (dose: 250.0 mg/kg/injection, schedule: Q01DX011 (ip), vehicle: saline)?
**A.** Its T/C is 69 % of control.

**Q.** And the T/C (dose: 500.0 mg/kg/injection, schedule: Q01DX011 (ip), vehicle: saline)?
**A.** Its T/C is 75 % of control.

**Q.** What about the T/C (dose: 1000.0 mg/kg/injection, schedule: Q01DX011 (ip), vehicle: saline) of the same compound?
**A.** Its T/C is 84 % of control.

**Q.** For `CC(C)CCSc1nc(N)nc2nc[nH]c12`, which T/C (dose: 4.68 mg/kg/injection, schedule: Q01DX011 (ip), vehicle: methylcellulose (MC)) is on record?
**A.** The T/C was 59 % of control.

**Q.** What about the T/C (dose: 9.37 mg/kg/injection, schedule: Q01DX011 (ip), vehicle: methylcellulose (MC)) of the same compound?
**A.** Its T/C is 29 % of control.

**Q.** What about the T/C (dose: 18.75 mg/kg/injection, schedule: Q01DX011 (ip), vehicle: methylcellulose (MC)) of the same compound?
**A.** Its T/C is 21 % of control.

**Q.** And the T/C (dose: 37.5 mg/kg/injection, schedule: Q01DX011 (ip), vehicle: methylcellulose (MC))?
**A.** Its T/C is 12 % of control.

**Q.** With `COC(=O)C1C2CC3c4[nH]c5cc(OC)ccc5c4CCN3CC2CC(OC(=O)c2cc(OC)c(OC)c(OC)c2)C1OC` (configuration not stated) as the compound, how does the T/C (dose: 0.5 mg/kg/injection, schedule: Q01DX011 (ip), vehicle: saline) read?
**A.** The T/C was 109 % of control.

**Q.** And the T/C (dose: 2.0 mg/kg/injection, schedule: Q01DX011 (ip), vehicle: saline)?
**A.** Its T/C is 101 % of control.

**Q.** How did the T/C (dose: 200.0 mg/kg/injection, schedule: Q01DX011 (ip), vehicle: other) turn out when `O/N=C1\CCCC\C1=N/O` was run?
**A.** The T/C was 55 % of control.

**Q.** And the T/C (dose: 300.0 mg/kg/injection, schedule: Q01DX011 (ip), vehicle: other)?
**A.** Its T/C is 4 % of control.
